Data: patent US20240327397A1, “Pesticidally Active Fused Bicyclic Heteroaromatic Compounds” (SYNGENTA CROP PROTECTION AG, priority 2021, published 2024)

Key:
Type in all cases: in vivo
[1] = test system: Chilo suppressalis (Striped Rice Stemborer); assay: Example B1: Chilo suppressalis, artificial diet in 24-well plates, L2 larvae; conditions: 144 h, application rate 200 ppm, 6 days after infestation, versus untreated, read-out: control (at least one of mortality, anti-feedant effect, growth inhibition)
Procedure: Example B1: Chilo suppressalis (Striped Rice Stemborer)
24-well microtiter plates with artificial diet were treated with aqueous test solutions prepared from 10'000 ppm DMSO stock solutions by pipetting. After drying, the plates were infested with L2 larvae (6-8 per well). The samples were assessed for mortality, anti-feeding effect, and growth inhibition in comparison to untreated samples 6 days after infestation. Control of Chilo suppressalis by a test sample is given when at least one of the categories mortality, anti-feedant effect, and growth inhibition is higher than the untreated sample.

[2] = test system: Diabrotica Balteata (Corn Root Worm); assay: Example B2: Diabrotica balteata, sprayed maize sprouts on agar, L2 larvae; conditions: 96 h, application rate 200 ppm, 4 days after infestation, versus untreated, read-out: effect in at least one of the two categories (mortality or growth inhibition)
Procedure: Example B2: Diabrotica Balteata (Corn Root Worm)
Maize sprouts placed onto an agar layer in 24-well microtiter plates were treated with aqueous test solutions prepared from 10'000 ppm DMSO stock solutions by spraying. After drying, the plates were infested with L2 larvae (6 to 10 per well). The samples were assessed for mortality and growth inhibition in comparison to untreated samples 4 days after infestation.

[3] = test system: Plutella xylostella (Diamond Back Moth); assay: Example B3: Plutella xylostella, artificial diet in 24-well plates, eggs; conditions: 192 h, application rate 200 ppm, 8 days after infestation, versus untreated, read-out: effect in at least one of the two categories (mortality or growth inhibition)
Procedure: Example B3: Plutella xylostella (Diamond Back Moth)
24-well microtiter plates with artificial diet were treated with aqueous test solutions prepared from 10'000 ppm DMSO stock solutions by pipetting. After drying, Plutella eggs were pipetted through a plastic stencil onto a gel blotting paper and the plate was closed with it. The samples were assessed for mortality and growth inhibition in comparison to untreated samples 8 days after infestation.

[4] = test system: Spodoptera littoralis (Eqyptian Cotton Leaf Worm); assay: Example B4: Spodoptera littoralis, sprayed cotton leaf discs, L1 larvae; conditions: foliar, 72 h, application rate 200 ppm, 3 days after infestation, versus untreated, read-out: control (at least one of mortality, anti-feedant effect, growth inhibition)
Procedure: Example B4: Spodoptera littoralis (Eqyptian Cotton Leaf Worm)
Cotton leaf discs were placed onto agar in 24-well microtiter plates and sprayed with aqueous test solutions prepared from 10'000 ppm DMSO stock solutions. After drying the leaf discs were infested with five L1 larvae. The samples were assessed for mortality, anti-feeding effect, and growth inhibition in comparison to untreated samples 3 days after infestation. Control of Spodoptera littoralis by a test sample is given when at least one of the categories mortality, anti-feedant effect, and growth inhibition is higher than the untreated sample.

[5] = test system: Frankliniella occidentalis (Western Flower Thrips); assay: Example B5: Frankliniella occidentalis, feeding/contact activity, sunflower leaf discs; conditions: foliar, 168 h, application rate 200 ppm, population of mixed ages, 7 days after infestation
Procedure: Example B5: Frankliniella occidentalis (Western Flower Thrips). Feedinq/Contact Activity
Sunflower leaf discs were placed on agar in 24-well microtiter plates and sprayed with aqueous test solutions prepared from 10'000 DMSO stock solutions. After drying the leaf discs were infested with a Frankliniella population of mixed ages. The samples were assessed for mortality 7 days after infestation.

[6] = test system: Myzus persicae (Green Peach Aphid); assay: Example B7: Myzus persicae, intrinsic activity, sucrose solution under Parafilm; conditions: 120 h, test rate 12 ppm, 5 days after infestation
Text: Example B7: Myzus persicae (Green Peach Aphid). Intrinsic Activity
Test compounds prepared from 10'000 ppm DMSO stock solutions were applied by pipette into 24-well microtiter plates and mixed with sucrose solution. The plates were closed with a stretched Parafilm. A plastic stencil with 24 holes was placed onto the plate and infested pea seedlings were placed directly on the Parafilm. The infested plate was closed with a gel blotting paper and another plastic stencil and then turned upside down. The samples were assessed for mortality 5 days after infestation.

[7] = test system: Myzus persicae (Green Peach Aphid); assay: Example B6: Myzus persicae, feeding/contact activity, sunflower leaf discs; conditions: foliar, 144 h, application rate 200 ppm, population of mixed ages, 6 days after infestation
Procedure: Example B6: Myzus persicae (Green Peach Aphid). Feedinq/Contact Activity
Sunflower leaf discs were placed onto agar in a 24-well microtiter plate and sprayed with aqueous test solutions prepared from 10'000 ppm DMSO stock solutions. After drying, the leaf discs were infested with an aphid population of mixed ages. The samples were assessed for mortality 6 days after infestation.

C[C@H](NC1=NS(C)(=O)=Nc2c(Br)cc(Br)cc21)c1ncnn1-c1ncccn1 (stereo partly drawn) [P1, 8,10-dibromo-3-methyl-3-oxo-N-[(1S)-1-(2-pyrimidin-2-yl-1,2,4-triazol-3-yl)ethyl]-3λ^6-thia-2,4-diazabicyclo[4.4.0]deca-1(6),2,4,7,9-pentaen-5-amine]
≥ 80%: percent control (mortality, anti-feedant effect or growth inhibition) at 200 ppm [1] | percent effect (mortality or growth inhibition) at 200 ppm [2] | percent effect (mortality or growth inhibition) at 200 ppm [3] | percent control (mortality, anti-feedant effect or growth inhibition) at 200 ppm [4] | mortality at 200 ppm [5] | mortality at 12 ppm [6]

C[C@H](NC1=NS(C)(=O)=Nc2c(Br)cc(Br)cc21)c1nccnc1-c1cnccn1 (stereo partly drawn) [P10, 8,10-dibromo-3-methyl-3-oxo-N-[(1S)-1-(3-pyrazin-2-ylpyrazin-2-yl)ethyl]-3λ^6-thia-2,4-diazabicyclo[4.4.0]deca-1(6),2,4,7,9-pentaen-5-amine]
≥ 80%: percent control (mortality, anti-feedant effect or growth inhibition) at 200 ppm [1] | percent effect (mortality or growth inhibition) at 200 ppm [2] | percent effect (mortality or growth inhibition) at 200 ppm [3] | percent control (mortality, anti-feedant effect or growth inhibition) at 200 ppm [4] | mortality at 200 ppm [5] | mortality at 200 ppm [7] | mortality at 12 ppm [6]
